Assay results: ChEMBL document CHEMBL1149929, “Novel 2-(2-furo[3,2-b]pyridinyl) pyrrolidines: potent neuronal nicotinic acetylcholine receptor ligands” (Bioorg Med Chem Lett, 1997)

What was measured:
[1] = target: T1, Neuronal acetylcholine receptor; alpha4/beta2 (Homo sapiens, UniProt P17787+P43681); experiment: (§1) Percent intrinsic activity against K177 cells relative to 100 uM (S)-nicotine.; assay type: functional, cell-based
[2] = target: T1, Neuronal acetylcholine receptor; alpha4/beta2; experiment: Tested for functional activity against neuronal nicotinic acetylcholine receptor(nAChR) expressed in K177 cells using isotopic rubidium efflux assay.; assay type: cell-based
[3] = target: Neuronal acetylcholine receptor; experiment: Tested for neuronal nicotinic acetylcholine receptor (nAChR) binding in a whole rat brain preparation using […] as the radioligand.
[4] = Percent intrinsic activity against IMR-32 cells relative to 100 uM (S)-nicotine.; assay type: functional, Homo sapiens
[5] = Tested for functional activity against neuronal nicotinic acetylcholine receptor(nAChR) expressed in IMR-32 cells using isotopic rubidium efflux assay.; assay type: cell-based; conditions: Homo sapiens
[6] = target: T2, Acetylcholine receptor subunit alpha (Homo sapiens, UniProt P02708); experiment: Tested for functional activity against alpha-1 neuronal nicotinic acetylcholine receptor(nAChR) expressed in TE671 cells using isotopic rubidium efflux assay.; assay type: cell-based, TE-671
Rattus norvegicus [7] = species on record: Rattus norvegicus; experiment: Tested for nAChR-mediated dopamine release from rat striatal slices.; assay type: functional
[8] = target: T2, Acetylcholine receptor subunit alpha; experiment: Percent intrinsic activity against TE671 cells relative to 100 uM (S)-nicotine.; assay type: functional, cell-based; conditions: TE-671
Rattus norvegicus [9] = species on record: Rattus norvegicus; experiment: Percent intrinsic activity relative to 100 uM (S)-nicotine.; assay type: functional
[10] = target: T2, Acetylcholine receptor subunit alpha; experiment: as §1; assay type: functional, cell-based

T2 sequence (P02708 whole entry): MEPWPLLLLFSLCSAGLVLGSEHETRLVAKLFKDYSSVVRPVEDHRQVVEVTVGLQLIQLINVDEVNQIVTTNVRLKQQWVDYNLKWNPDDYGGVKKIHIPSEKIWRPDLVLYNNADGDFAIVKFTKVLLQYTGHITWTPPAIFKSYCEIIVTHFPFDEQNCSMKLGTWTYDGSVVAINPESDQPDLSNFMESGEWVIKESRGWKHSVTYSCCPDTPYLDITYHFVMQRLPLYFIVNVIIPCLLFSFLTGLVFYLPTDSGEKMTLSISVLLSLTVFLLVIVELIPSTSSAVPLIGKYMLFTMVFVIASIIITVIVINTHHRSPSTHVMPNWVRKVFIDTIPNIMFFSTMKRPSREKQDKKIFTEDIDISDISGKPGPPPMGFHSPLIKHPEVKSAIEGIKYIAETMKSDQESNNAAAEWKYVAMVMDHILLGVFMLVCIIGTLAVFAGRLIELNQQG
T1 sequence (P17787 whole entry): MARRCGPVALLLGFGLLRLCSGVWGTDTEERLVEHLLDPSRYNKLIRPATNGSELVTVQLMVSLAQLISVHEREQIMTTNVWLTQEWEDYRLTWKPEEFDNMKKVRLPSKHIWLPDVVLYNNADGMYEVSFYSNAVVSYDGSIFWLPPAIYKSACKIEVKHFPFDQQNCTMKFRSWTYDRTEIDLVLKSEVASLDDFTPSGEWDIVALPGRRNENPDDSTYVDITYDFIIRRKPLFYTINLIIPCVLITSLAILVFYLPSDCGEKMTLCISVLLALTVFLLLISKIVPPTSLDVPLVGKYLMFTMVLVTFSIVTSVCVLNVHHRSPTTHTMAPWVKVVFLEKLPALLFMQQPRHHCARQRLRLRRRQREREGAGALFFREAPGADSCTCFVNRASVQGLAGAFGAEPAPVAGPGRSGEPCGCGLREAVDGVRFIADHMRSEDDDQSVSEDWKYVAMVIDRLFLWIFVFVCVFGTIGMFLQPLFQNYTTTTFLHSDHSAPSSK
T1 sequence (P43681 whole entry): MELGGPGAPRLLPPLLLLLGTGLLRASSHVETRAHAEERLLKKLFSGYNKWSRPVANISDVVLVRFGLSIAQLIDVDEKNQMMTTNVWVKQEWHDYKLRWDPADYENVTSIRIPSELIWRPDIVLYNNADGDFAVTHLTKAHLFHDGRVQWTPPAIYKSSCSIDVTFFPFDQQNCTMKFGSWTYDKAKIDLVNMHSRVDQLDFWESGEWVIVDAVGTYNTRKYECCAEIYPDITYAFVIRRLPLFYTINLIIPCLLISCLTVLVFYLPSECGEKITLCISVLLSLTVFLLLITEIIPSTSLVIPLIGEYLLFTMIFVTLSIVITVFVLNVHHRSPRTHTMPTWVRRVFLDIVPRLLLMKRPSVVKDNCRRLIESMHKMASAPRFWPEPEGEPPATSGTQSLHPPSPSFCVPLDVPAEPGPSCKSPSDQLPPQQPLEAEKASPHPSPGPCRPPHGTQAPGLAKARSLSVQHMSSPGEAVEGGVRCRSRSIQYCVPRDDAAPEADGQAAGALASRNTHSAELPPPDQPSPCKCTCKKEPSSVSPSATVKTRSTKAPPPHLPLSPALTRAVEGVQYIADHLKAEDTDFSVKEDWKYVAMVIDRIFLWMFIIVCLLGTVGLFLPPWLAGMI

Compound	Intrinsic activity [1] [%]	EC50 [2] [µM]	Ki [3] [µM]	Intrinsic activity [4] [%]	EC50 [5] [µM]	EC50 [6] [µM]	EC50 (Rattus norvegicus [7]) [µM]	Intrinsic activity [8] [%]	Intrinsic activity (Rattus norvegicus [9]) [%]	Intrinsic activity [10] [%]
c1cnc2cc([C@H]3CCCN3)oc2c1	30	11	0.00511	57.8	41.5	–	–	–	–	–
Cc1cc([C@@H]2CCCN2C)on1 [ABT-418]	93	10.6	–	85	64	411	380	38	100	–
CN1CCC[C@H]1c1cccnc1 [NICOTINE]	100	–	–	100	21	180	–	100	100	–
CN1CCC[C@@H]1c1cc2ncccc2o1	5.7	> 1000	0.0979	15.2	> 1000	–	–	–	–	–
c1cnc2cc([C@@H]3CCCN3)oc2c1	–	–	0.0758	9.2	> 1000	–	–	–	–	7.4
CN1CCC[C@H]1COc1cccnc1	100	0.75	–	77.2	24	34	107	40	74	–
CN1CCC[C@H]1c1cc2ncccc2o1	81	3.2	0.00273	10.6	> 1000	> 100	141	18.9	43	–
